27 compounds from US11370798B2 (Vertex Pharmaceuticals Incorporated, priority 2012, dated 2022) can be followed below.

The subject of this test is HCT116 colorectal cancer cells. As to the kind of experiment: Cisplatin sensitization assay (96 h cell viability MTS).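 Note: Test-compound concentration that lowers the Cisplatin IC50 by a set fold.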 The class given is cell-based. Conditions: compound and Cisplatin added simultaneously, Cisplatin sensitization value. On the procedure:
Compounds can be screened for their ability to sensitize HCT116 colorectal cancer cells to Cisplatin using a 96 h cell viability (MTS) assay. […] Compounds and Cisplatin are then both added simultaneously to the cell media in 2-fold serial dilutions from a top final concentration of 10 μM as a full matrix of concentrations in a final cell volume of 200 μl, and the cells are then incubated at 37° C. in 5% CO2. After 96 h, 40 μl of MTS reagent (Promega G358a) is added to each well and the cells are incubated for 1 h at 37° C. in 5% CO2.
Compounds with a Cisplatin sensitization value of <0.02 μM are marked with “+++.” Compounds with a Cisplatin sensitization value>0.02 μM but <0.2 μM are marked with “++.” Compounds with a Cisplatin sensitization value>0.2 μM but <5 μM are marked with “+.”
For the compound `CN1CCC(c2ccncc2NC(=O)c2c(N)nn3cc(C(C)(C)C#N)cnc23)CC1` [I-C-23, 2-amino-6-(2-cyanopropan-2-yl)-N-(4-(1-methylpiperidin-4-yl)pyridin-3-yl)pyrazolo[1,5-a]pyrimidine-3-carboxamide], the “Cisplatin Sensitization Assay” value was “+ (Cisplatin sensitization value>0.2 μM but <5 μM)”.

On to `Nc1nn2cc(F)cnc2c1C(=O)Nc1cnccc1-c1ccncc1` [I-C-24, N-([4,4′-bipyridin]-3-yl)-2-amino-6-fluoropyrazolo[1,5-a]pyrimidine-3-carboxamide], for which the “Cisplatin Sensitization Assay” value is “+++ (Cisplatin sensitization value of <0.02 μM)”. For `CN1CCN(C(=O)c2ccc(-c3ccncc3NC(=O)c3c(N)nn4cc(F)cnc34)cc2)CC1` [I-C-25, 2-amino-6-fluoro-N-(4-(4-(4-methylpiperazine-1-carbonyl)phenyl)pyridin-3-yl)pyrazolo[1,5-a]pyrimidine-3-carboxamide] the value was “+++ (Cisplatin sensitization value of <0.02 μM)”; for `Nc1nn2cc(F)cnc2c1C(=O)Nc1cnccc1-c1ccnnc1` [I-C-26, 2-amino-6-fluoro-N-(4-(pyridazin-4-yl)pyridin-3-yl)pyrazolo[1,5-a]pyrimidine-3-carboxamide], “++ (Cisplatin sensitization value>0.02 μM but <0.2 μM)”. To `COc1ccc(-c2ccncc2NC(=O)c2c(N)nn3cc(F)cnc23)cn1` [I-C-27, 2-amino-6-fluoro-N-(6-methoxy-[3,4′-bipyridin]-3′-yl)pyrazolo[1,5-a]pyrimidine-3-carboxamide] belongs “++ (Cisplatin sensitization value>0.02 μM but <0.2 μM)”; to `Cc1cnccc1-c1ccncc1NC(=O)c1c(N)nn2cc(F)cnc12` [I-C-29, 2-amino-6-fluoro-N-(3′-methyl-[4,4′-bipyridin]-3-yl)pyrazolo[1,5-a]pyrimidine-3-carboxamide], “+++ (Cisplatin sensitization value of <0.02 μM)”. Turning to `Cc1ccncc1-c1ccncc1NC(=O)c1c(N)nn2cc(F)cnc12` [I-C-30, 2-amino-6-fluoro-N-(4-methyl-[3,4′-bipyridin]-3′-yl)pyrazolo[1,5-a]pyrimidine-3-carboxamide], the “Cisplatin Sensitization Assay” value was “+++ (Cisplatin sensitization value of <0.02 μM)”. In the case of `Cc1nnccc1-c1ccncc1NC(=O)c1c(N)nn2cc(F)cnc12` [I-C-31, 2-amino-6-fluoro-N-(4-(3-methylpyridazin-4-yl)pyridin-3-yl)pyrazolo[1,5-a]pyrimidine-3-carboxamide], the “Cisplatin Sensitization Assay” value is recorded as “+++ (Cisplatin sensitization value of <0.02 μM)”. For `Cc1ccnnc1-c1ccncc1NC(=O)c1c(N)nn2cc(F)cnc12` [I-C-33, 2-amino-6-fluoro-N-(4-(4-methylpyridazin-3-yl)pyridin-3-yl)pyrazolo[1,5-a]pyrimidine-3-carboxamide] the value was “+ (Cisplatin sensitization value>0.2 μM but <5 μM)”; for `Cc1nc(F)ccc1-c1ccncc1NC(=O)c1c(N)nn2cc(F)cnc12` [I-C-34, 2-amino-6-fluoro-N-(6-fluoro-2-methyl-[3,4′-bipyridin]-3′-yl)pyrazolo[1,5-a]pyrimidine-3-carboxamide], “+++ (Cisplatin sensitization value of <0.02 μM)”.

As for `Nc1nn2cc(F)cnc2c1C(=O)Nc1cnccc1-c1cccnc1F` [I-C-35, 2-amino-6-fluoro-N-(2-fluoro-[3,4′-bipyridin]-3′-yl)pyrazolo[1,5-a]pyrimidine-3-carboxamide], the “Cisplatin Sensitization Assay” value is recorded as “+++ (Cisplatin sensitization value of <0.02 μM)”. To `Cc1cccnc1-c1ccncc1NC(=O)c1c(N)nn2cc(F)cnc12` [I-C-36, 2-amino-6-fluoro-N-(3-methyl-[2,4′-bipyridin]-3′-yl)pyrazolo[1,5-a]pyrimidine-3-carboxamide] belongs “+++ (Cisplatin sensitization value of <0.02 μM)”; to `Nc1nn2cc(F)cnc2c1C(=O)Nc1cnccc1-c1cccnc1Cl` [I-C-37, 2-amino-N-(2-chloro-[3,4′-bipyridin]-3′-yl)-6-fluoropyrazolo[1,5-a]pyrimidine-3-carboxamide], “+++ (Cisplatin sensitization value of <0.02 μM)”. For the compound `CN1CCC(C(=O)N2CC=C(c3c(F)cncc3NC(=O)c3c(N)nn4cc(F)cnc34)CC2)CC1` [I-C-38, 2-amino-6-fluoro-N-(5-fluoro-1′-(1-methylpiperidine-4-carbonyl)-1′,2′,3′,6′-tetrahydro-[4,4′-bipyridin]-3-yl)pyrazolo[1,5-a]pyrimidine-3-carboxamide], the “Cisplatin Sensitization Assay” value is “++ (Cisplatin sensitization value>0.02 μM but <0.2 μM)”. For `Cc1nc(C(=O)N2CCN(C)CC2)ccc1-c1ccncc1NC(=O)c1c(N)nn2cc(F)cnc12` [I-C-39, 2-amino-6-fluoro-N-(2-methyl-6-(4-methylpiperazine-1-carbonyl)-[3,4′-bipyridin]-3′-yl)pyrazolo[1,5-a]pyrimidine-3-carboxamide] the value was “+++ (Cisplatin sensitization value of <0.02 μM)”. For `Cc1nc(N2CCN(C)CC2)ccc1-c1ccncc1NC(=O)c1c(N)nn2cc(F)cnc12` [I-C-40, 2-amino-6-fluoro-N-(2-methyl-6-(4-methylpiperazin-1-yl)-[3,4′-bipyridin]-3′-yl)pyrazolo[1,5-a]pyrimidine-3-carboxamide] the value was “+++ (Cisplatin sensitization value of <0.02 μM)”; for `Cc1nc(O[C@@H]2CCN(C)C2)ccc1-c1ccncc1NC(=O)c1c(N)nn2cc(F)cnc12` [I-C-41, (R)-2-amino-6-fluoro-N-(2-methyl-6-((1-methylpyrrolidin-3-yl)oxy)-[3,4′-bipyridin]-3′-yl)pyrazolo[1,5-a]pyrimidine-3-carboxamide], “+++ (Cisplatin sensitization value of <0.02 μM)”; for `Nc1nn2cc(F)cnc2c1C(=O)Nc1cnccc1C1CC1` [I-C-42, 2-amino-N-(4-cyclopropylpyridin-3-yl)-6-fluoropyrazolo[1,5-a]pyrimidine-3-carboxamide], “++ (Cisplatin sensitization value>0.02 μM but <0.2 μM)”.

Take `CN1CCN(C(=O)c2ccc(-c3c(F)cncc3NC(=O)c3c(N)nn4cc(F)cnc34)cc2)CC1` [I-C-43, 2-amino-6-fluoro-N-(5-fluoro-4-(4-(4-methylpiperazine-1-carbonyl)phenyl)pyridin-3-yl)pyrazolo[1,5-a]pyrimidine-3-carboxamide]: the “Cisplatin Sensitization Assay” value is “+++ (Cisplatin sensitization value of <0.02 μM)”. For `Nc1nn2cc(F)cnc2c1C(=O)Nc1cnccc1-c1ccc(C(=O)N2CCNCC2)cc1` [I-C-44, 2-amino-6-fluoro-N-(4-(4-(piperazine-1-carbonyl)phenyl)pyridin-3-yl)pyrazolo[1,5-a]pyrimidine-3-carboxamide] the value was “+++ (Cisplatin sensitization value of <0.02 μM)”.

Turning to `Cc1cc(C(=O)N2CCN(C)CC2)ccc1-c1ccncc1NC(=O)c1c(N)nn2cc(F)cnc12` [I-C-45, 2-amino-6-fluoro-N-(4-(2-methyl-4-(4-methylpiperazine-1-carbonyl)phenyl)pyridin-3-yl)pyrazolo[1,5-a]pyrimidine-3-carboxamide], the “Cisplatin Sensitization Assay” value is reported as “+++ (Cisplatin sensitization value of <0.02 μM)”.

As to `CN1CCN(C(=O)c2cnc(-c3ccncc3NC(=O)c3c(N)nn4cc(F)cnc34)c(Cl)c2)CC1` [I-C-46, 2-amino-N-(3-chloro-5-(4-methylpiperazine-1-carbonyl)-[2,4′-bipyridin]-3′-yl)-6-fluoropyrazolo[1,5-a]pyrimidine-3-carboxamide], the “Cisplatin Sensitization Assay” value is “+ (Cisplatin sensitization value>0.2 μM but <5 μM)”.

In the case of `Nc1nn2cc(F)cnc2c1C(=O)Nc1cnccc1C1CCN(S(=O)(=O)C2CC2)CC1` [I-C-47, 2-amino-N-(4-(1-(cyclopropylsulfonyl)piperidin-4-yl)pyridin-3-yl)-6-fluoropyrazolo[1,5-a]pyrimidine-3-carboxamide], the “Cisplatin Sensitization Assay” value was “+++ (Cisplatin sensitization value of <0.02 μM)”. With `Nc1nn2cc(F)cnc2c1C(=O)Nc1cnccc1-c1ccc(C(=O)N2CCN3CCC2CC3)cc1` [I-C-48, N-(4-(4-(1,4-diazabicyclo[3.2.2]nonane-4-carbonyl)phenyl)pyridin-3-yl)-2-amino-6-fluoropyrazolo[1,5-a]pyrimidine-3-carboxamide], the “Cisplatin Sensitization Assay” value is on record as “+++ (Cisplatin sensitization value of <0.02 μM)”. For `Nc1nn2cc(F)cnc2c1C(=O)Nc1cnccc1-c1ccc(C(=O)N2CCN(C3COC3)CC2)cc1` [I-C-49, 2-amino-6-fluoro-N-(4-(4-(4-(oxetan-3-yl)piperazine-1-carbonyl)phenyl)pyridin-3-yl)pyrazolo[1,5-a]pyrimidine-3-carboxamide] the value was “+++ (Cisplatin sensitization value of <0.02 μM)”; for `Nc1nn2cc(F)cnc2c1C(=O)Nc1cnccc1-c1ccc(C(=O)N2CCN3CCC2CC3)cc1F` [I-C-50, N-(4-(4-(1,4-diazabicyclo[3.2.2]nonane-4-carbonyl)-2-fluorophenyl)pyridin-3-yl)-2-amino-6-fluoropyrazolo[1,5-a]pyrimidine-3-carboxamide], “+++ (Cisplatin sensitization value of <0.02 μM)”; for `Nc1nn2cc(F)cnc2c1C(=O)Nc1cnccc1-c1ccc(C(=O)N2CCN(C3COC3)CC2)cc1F` [I-C-51, 2-amino-6-fluoro-N-(4-(2-fluoro-4-(4-(oxetan-3-yl)piperazine-1-carbonyl)phenyl)pyridin-3-yl)pyrazolo[1,5-a]pyrimidine-3-carboxamide], “++ (Cisplatin sensitization value>0.02 μM but <0.2 μM)”.
